Tests used:
HUVEC [1] = assay: Anti-apoptotic effect, staurosporine-induced apoptosis (Annexin V-FITC/Propidium Iodide flow cytometry); type: cell-based, human
Procedure: NNGH was added 30 minutes before adding MMP3. As a control, cells were cultured in EBM-2 without adding any in the presence of staurosporine. Four hours later, HUVEC was detached from the dish and stained with Annexin V-FITC (Roche) and Propidium Iodide (Sigma) in a cell suspension for 15 minutes and measured ratio of necrosis and apoptosis in flow cytometer JSAN (Bay Bioscience, Kobe).

[2] = test system: Human umbilical vein endothelial cells (HUVECs); assay: Proliferative effect on endothelial cells (Tetra-color one, 450 nm absorbance); type: cell-based; settings: HUVEC
Procedure: Human umbilical vein endothelial cells (HUVECs) (KURABO Industries, Osaka,) were seeded with 1,000 cells per 96 well. […] Ten μl of Tetra-color one (Seikagaku Kogyo, Co., Tokyo, Japan) was added to the 96 well plate, and cell numbers were measured using spectrophotometer at 450 nm absorbance at 2, 12, 24, 36, 48, 60 hours of culture. Wells without cells were served as negative controls.

[3] = test system: amputated pulp of rat upper incisor; assay: Rat pulp amputated model; type: in vivo
Procedure: After pulpotomy of rat upper incisor, and wash with a saline, 50 ng of MMP3 adsorbed in spongel was applied to the amputated pulp. As a control, 50 ng of MMP3 and 30 nmol NNGH adsorbed in spongel was applied to the amputated pulp. The cavity was temporally sealed with a bonding agent and a photopolymerization type composite resin (Unifil low flow, GC, Tokyo). 24 hours, 72 hours, or 7 days after application, the paraffin sections of the 5 μm thickness were examined morphologically after HE staining or Masson Trichrome staining.
For quantitative analysis of newly formed blood vessels, each 5 frozen sections at 24 hours after treatment both with MMP3 and control PBS from 4 incisors each, total 40 sections were stained with Fluorescein Griffonia (Bandeiraea) Simplicifolia lectin (BS1-lectin) as described above. Three rectangles of a standardized size (0.1 mm^2) were drawn in the upper part of pulp tissue under the amputated site in every five sections from one sample. The lectin-positive area relative to total area (1.5 mm^2) was quantitatively analyzed in a standardized procedure using BZ-II Analyzer (Keyence) software on a Keyence BZ-9000 fluorescence microscope (Keyence, Tokyo, Japan). The data were presented as means±standard deviation at 4 determinations.
To evaluate effect of MMP3 on proliferation, immunohistochemical analysis of Proliferating Cell Nuclear Antigen (PCNA) was performed. Paraffin sections of 24 hours after treatment were deparaffinized and antigen was retrieved by antigen unmasking solution (Vector Laboratories, Burlingame, Calif.) according to the manufacturer's instructions. Endogenous peroxidase activity and nonspecific staining were blocked as described earlier. The sections were incubated with anti-PCNA antibody (Dako) at dilutions of 1:100 in antibody diluent (Dako) overnight at 4° C., and further incubated with a peroxidase-conjugated secondary antibody (ImmPRESS reagent; Vector Laboratories) for 30 min at room temperature. After development by DAB Liquid System (Dako), sections were counterstained with hematoxylin, and photographed on an Olympus Vanox-s microscope (Olympus, Tokyo, Japan). For quantitative analysis of proliferating cells, each 3 paraffin sections at 24 hours after treatment both with MMP3 and control PBS from 4 incisors each were used. Three rectangles of a standardized size (0.1 mm^2) were drawn in the upper part of pulp tissue under the amputated site in every 3 sections. The positive staining cells were counted and quantitatively analyzed. The data were presented as means±standard deviation at 4 determinations.
For quantitative analysis of matrix formation, each 5 paraffin sections at 72 hours after treatment both with MMP3 and control PBS from 4 incisors each, and 5 sections at 7 days after treatment with MMP3, NNGH, and control PBS from 4 incisors each were stained with Masson's trichrome staining. The positive area was quantitatively analyzed in the upper part of pulp tissue under the amputated site, 2 mm in depth from the amputated site, using BZ-II Analyzer software. The data were presented as means±standard deviation at 4 determinations.

HUVEC [4] = assay: Modified Boyden chamber migration assay; type: cell-based, human
Procedure: Modified Boyden chamber assay was performed at 37° C. with a PET membrane (BD Bioscience, Franklin Lakes, N.J.) of 24 well for 24 hours. In the presence of 10 ng/ml of MMP3, 100 ng/ml of MMP3, 100 ng/ml of MMP3 and 0.13 μmol of NNGH, 50 ng/ml of MMP10, 50 ng/ml of MMP10 and 0.13 μmol of NNGH, 0.13 μmol of NNGH only, or 50 ng/ml of VEGF-A, 5×10^4 cells of HUVEC was cultured in the upper part of the chamber. As a control, a 0.02% bovine serum albumin (Sigma) was used. After incubations, HUVEC which migrated to the lower part of the membrane was detached by trypsin treatment and counted. […] The data represented the mean±SD of 4 samples.

[5] = test system: pulp cells from rat upper incisor; assay: Induction of odontoblast differentiation using pulp cells (Dspp, enamelysin real-time RT-PCR); type: cell-based; settings: MMP3 100 ng/ml, 14 days and 21 days
Procedure: Pulp cells were isolated from rat upper incisor by the trypsin and collagenase digestion method and cultured in DMEM (Sigma, St. Louis, Mo., USA) including L-ascorbic acid phosphoric acid magnesium salt (Wako pure medicine) and 10% of […] fetal bovine serum (SAFC Biosciences, Lenexa, Kans., USA) and 100 unit/ml penicillin G, 100 μg/ml streptomycin (Invitrogen, Carlsbad, Calif., USA). MMP3 was added 100 ng/ml of MMP3, or 0.13 μmol of NNGH and 50 ng/ml human recombinant BMP2 to the cells at second passage of culture after confluence. Total RNA was extracted 14 days or 21 days after and analyzed expression of odontoblastic differentiation markers, dentin sialophosphoprotein (Dspp) and enamelysin by Real-time RT-PCR (table 1). […] When MMP3 was added, the differentiation inductive effect into odontoblasts in particular was […] in comparison without adding MMP3 of the control 14 days and 21 days after treatment.

[6] = test system: inflamed pulp (pulpitis) of dog upper premolar tooth; assay: Dog pulpitis model; type: in vivo
Procedure: The inflammation of the pulp was produced be open with cotton for 24 hours after pulpotomy in the dog upper premolar tooth. Subsequently 100 ng of MMP3 absorbed in spongel was applied to the amputated pulp after washing with 5% sodium hypochlorite solution and 3% hydrogen peroxide and further with a saline. Furthermore, the cavity was filled with phosphate cement and temporally sealed with a chemical polymerization composite resin after application with a bonding agent. The tooth was extracted 14 days later, immersed at 4° C. overnight and followed by fixation and decalcification at 4° C. in 10% formic acid for one week. The reparative dentin formation was observed by an light microscope after H.E. staining at 5 μm-paraffin sections. FIG. 11A is a figure of micrograph showing healing of pulpitis state 14 days after MMP3 application in the upper premolar tooth of the dog in which pulpitis had been produced. FIG. 11B is a figure of micrograph of the high power to show healing of pulpitis state 14 days after MMP3 application in the upper premolar tooth of the dog in which pulpitis had been produced. FIG. 11C is a figure of micrograph 14 days in case of the PBS control of the upper premolar tooth of the dog in which pulpitis produces had been produced. FIG. 11D is a figure of micrograph of the high power 14 days in case of the PBS control of the upper premolar tooth of the dog n which pulpitis had been produced.

[7] = test system: amputated pulp of dog upper premolar teeth; assay: Dog pulpotomy model; type: in vivo; settings: 100 ng MMP3 in spongel, 14 days
Procedure: After pulpotomy of dog upper premolar teeth, the amputated pulp was washed with 5% sodium hypochlorite solution and 3% hydrogen peroxide and further was washed with a saline, 100 ng of MMP3 absorbed in spongel was applied on the amputated pulp. Furthermore, the cavity was provisionally filled with phosphate cement and sealed with a chemical polymerization composite resin after application of a bonding agent. The tooth was extracted 14 days after treatment and fixed with 4% paraformaldehyde fixation at 4° C. overnight and decalcified at 4° C. in 10% formic acid for one week. Reparative dentin formation was observed after HE staining under light microscopy in the longitudinal paraffin 5 μm-section.

Compound: CN[C@@H]1C[C@H]2O[C@@](C)([C@@H]1OC)n1c3ccccc3c3c4c(c5c6ccccc6n2c5c31)C(=O)NC4 [Staurosporine, reference compound]
- apoptosis, % of cells (HUVEC [1]; Staurosporine 100 nM alone, four hours): 52%

Compound: COc1ccc(S(=O)(=O)N(CC(=O)NO)CC(C)C)cc1 [NNGH, N-Isobutyl-N-(4-methoxyphenylsulfonyl)-glycylhydroxamic acid, reference compound]
- proliferative effect of MMP3 when NNGH added at the same time ([2]; MMP3 50 ng/mL with NNGH 0.13 μM): restrained
- proliferative effect in comparison with the no addition group of MMP3 ([2]; NNGH added): almost the same
- dentin matrix formation in comparison with PBS control group ([3]; 7 days after pulpotomy, P<0.01): Significant decrease
- migration effect of MMP3 when NNGH added at the same time (HUVEC [4]; HUVEC, 100 ng/ml MMP3 and 0.13 μmol NNGH): inhibited
- anti-apoptotic effect of MMP3 when NNGH added at the same time (HUVEC [1]; 50 ng/ml MMP3 with 0.13 μmol NNGH, staurosporine 100 nM): inhibited

Compound: MMP10/Stromelysin-2: MMP-10 (R&D Systems); an isomer of MMP3
- proliferative effect ([2]; MMP-10 50 ng/mL): did not have
- migration effect (HUVEC [4]; HUVEC, 50 ng/ml of MMP10): did not have
- anti-apoptotic effect (HUVEC [1]; 50 ng/ml of MMP10, staurosporine 100 nM): did not have

Compound: MMP3: human MMP3 (Chemicon); protein of the MMP family, referred to as stromelysin 1; active ingredient of the medicament
- increase of proliferation, 48-hour application in comparison with 2-hour application ([2]; MMP3 50 ng/mL): approximately 10 times
- differentiation inductive effect into odontoblasts (Dspp, enamelysin mRNA) in comparison with control without MMP3 [5]: not seen
- PCNA positively staining cells ([3]; 50 ng MMP3, 24 hours after pulpotomy, pulp under the amputated site): 98.5 cells/mm^2
- increase of the vascularization density versus PBS group ([3]; 50 ng MMP3, 24 hours, BS1-lectin positive area): double
- newly formed blood vessels stained with BS1-lectin under the amputated surface, in comparison with MMP3 free group ([3]; 50 ng MMP3 in spongel, 24 hours after pulpotomy): more detected
- PCNA positively staining cells, increase versus non applied group ([3]; 24 hours after pulpotomy): 2.7 times
- osteodentin formation around newly differentiated odontoblasts/osteodentinoblasts (Masson's Trichrome staining) ([3]; 72 hours after application): observed
- DSPP mRNA expression in newly differentiated odontoblasts/osteodentinoblasts (in situ hybridization) ([3]; 72 hours after pulpotomy): seen
- amount of osteodentin in comparison with non applied MMP3 (HE staining) ([3]; 72 hours after pulpotomy): larger amount
- inflammatory cell infiltration (HE staining) ([3]; 72 hours after pulpotomy): not observed
- dentin matrix formation under the amputated site, increase in comparison with PBS control group ([3]; 72 hours after pulpotomy, P<0.01): 3.8 times
- migration promotion effect on HUVEC in comparison with control (HUVEC [4]; 10 ng/ml, 24 hours): significant difference was not detected
- migration of HUVEC, increase compared with the control (HUVEC [4]; 100 ng/ml, 24 hours, control 0.02% bovine serum albumin): approximately 3.5 times
- proliferation under the amputated pulp ([6]; 100 ng MMP3, 14 days): seen
- reparative dentin formation ([6]; 100 ng MMP3, 14 days): sometimes observed
- vascularization ([6]; 100 ng MMP3, 14 days): enhanced
- inflammation state of the pulp ([6]; 100 ng MMP3 in spongel, 14 days): very slight
- cell proliferation in the vicinity of the amputated surface [7]: a large number
- reparative dentin formation in the upper part of the amputated pulp [7]: a large quantity
- apoptotic cells (HUVEC [1]; MMP3 50 ng/ml added at the same time of Staurosporine 100 nM, four hours): 20%

— patent US9597360B2, “Method of treatment for pulpitis and/or enhancement for dentinogenesis” (National Center for Geriatrics and Gerontology, priority 2008, dated 2017)
